Values joined by “and” are separate entries in the source; they are usually repeats but may differ in a detail not shown here. Equal values may be shown once. “Also recorded” adds a separate entry of the source. Read-outs that look alike come from different tables or passages of the source.
Legend:
α4-GFPβ4-WT nAChRs = molecular target: T1, α4-GFPβ4-WT nAChRs (Mus musculus, UniProt O70174+Q8R493); assay: Whole-cell patch clamp of ACh currents in cortical neurons transfected with α4-GFPβ4-WT; type: cell-based
T1 construct: expressed in transfected cells; host or cells: mouse cortical neurons (primary culture)
T1 sequence (O70174 31-629): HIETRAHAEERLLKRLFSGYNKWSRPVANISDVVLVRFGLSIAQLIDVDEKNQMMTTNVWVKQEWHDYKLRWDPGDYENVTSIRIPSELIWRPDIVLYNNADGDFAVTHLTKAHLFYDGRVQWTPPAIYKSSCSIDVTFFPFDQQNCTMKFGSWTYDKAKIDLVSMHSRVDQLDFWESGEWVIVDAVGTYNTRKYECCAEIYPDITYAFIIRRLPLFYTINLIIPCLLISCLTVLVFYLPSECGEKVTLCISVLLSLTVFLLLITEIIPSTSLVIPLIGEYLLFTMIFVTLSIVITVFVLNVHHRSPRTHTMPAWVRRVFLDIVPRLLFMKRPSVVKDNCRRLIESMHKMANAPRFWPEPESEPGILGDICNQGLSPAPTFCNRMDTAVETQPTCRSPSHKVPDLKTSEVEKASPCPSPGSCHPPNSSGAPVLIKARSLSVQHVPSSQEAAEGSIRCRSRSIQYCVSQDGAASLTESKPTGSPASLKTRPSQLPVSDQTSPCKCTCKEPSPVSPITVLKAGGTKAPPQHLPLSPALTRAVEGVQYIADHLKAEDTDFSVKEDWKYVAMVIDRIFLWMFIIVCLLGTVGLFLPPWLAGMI
T1 sequence (Q8R493 21-495): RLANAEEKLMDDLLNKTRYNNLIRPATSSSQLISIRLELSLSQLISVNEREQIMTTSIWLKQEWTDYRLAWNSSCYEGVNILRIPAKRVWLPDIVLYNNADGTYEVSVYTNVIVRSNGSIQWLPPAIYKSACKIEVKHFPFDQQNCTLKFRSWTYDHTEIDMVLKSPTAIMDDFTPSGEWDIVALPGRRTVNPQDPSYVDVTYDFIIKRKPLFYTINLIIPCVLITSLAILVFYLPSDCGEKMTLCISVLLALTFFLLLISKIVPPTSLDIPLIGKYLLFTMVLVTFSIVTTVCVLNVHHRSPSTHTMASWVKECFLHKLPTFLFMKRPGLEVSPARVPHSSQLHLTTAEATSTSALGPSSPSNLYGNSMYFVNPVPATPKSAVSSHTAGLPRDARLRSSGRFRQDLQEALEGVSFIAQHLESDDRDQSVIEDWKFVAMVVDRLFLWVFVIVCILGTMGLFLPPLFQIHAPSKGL
Experimental: (§1) To correlate the fluorescence based insertion measurements with electrophysiological measurements, we performed whole-cell patch clamp recording from neurons in the preparation used for our fluorescence experiments, transfected either with α4-GFPβ4-WT or with α4-GFPβ4-R348C nAChRs. The successfully transfected neurons were identified with green fluorescence (FIG. 6. A, D of Richards et al.). Puffs of 300 μM ACh (0.1 s, 20 psi), typically give maximal currents in previous experiments and therefore provide a measure of nAChR number. ACh evoked inward currents in 100% (8/8) and 92% (11/12) of neurons transfected with α4-GFPβ4-WT and α4-GFPβ4-R348C nAChRs, respectively (FIG. 6B, 6E of Richards et al.). The α4-GFPβ4-R348C nAChR currents (120±33 pA, n=12) were only 40% of α4-GFPβ4-WT nAChR currents (310±72 pA, n=8) (p=0.02) (FIG. 6C of Richards et al.). Because variations among the size of neurons could complicate the data, we calculated current density (dividing ACh currents divided by membrane capacitance). The current density of […] (16.3±2.1 pA/pF, n=8) (p=0.001) (FIG. 6F of Richards et al.). Thus in cortical neurons, the R348C mutation produces a fairly consistent ˜2-fold decrease in α4β4-insertion rate and ˜2.5 fold decrease in ACh-induced currents.

α4-GFPβ4-R348C nAChRs = molecular target: T2, α4-GFPβ4-R348C nAChRs (Mus musculus, UniProt O70174+Q8R493, R348C); assay: Whole-cell patch clamp of ACh currents in cortical neurons transfected with α4-GFPβ4-R348C; type: cell-based
T2 construct: expressed in transfected cells; host or cells: mouse cortical neurons (primary culture)
T2 sequence (O70174 31-629, stated change not applied): as the sequence (O70174 31-629) above
T2 sequence (Q8R493 21-495 R348C): as the sequence (Q8R493 21-495) above, with R328C counted along it
Experimental: as §1

ER exit sites (ERES) = type: cell-based, mouse
Experimental: (§2) Mouse Neuro-2a cells were cultured using standard tissue culture techniques and maintained in 45% DMEM, 45% OptiMEM and 10% FBS. Plasmid concentrations used for transfection were as follows: 500 ng of each nAChR subunit, 75 ng of pCS2-mcherry, 250 ng of Sec24D constructs, 100 ng of pDsRed2-ER, 250 ng of GaIT-eCFP and 500 ng of ATF6-eGFP. 90,000 cells were plated in poly-D-lysine coated 35 mm MatTek glass bottom imaging dishes. The following day, plasmid DNA was mixed with cationic lipids by adding appropriate DNA concentrations to 4 μl of Expressfect transfection reagent in 200 μl DMEM final volume and incubated for 20 min at room temperature to form cationic lipid-DNA complexes. DMEM+DNA-lipid complexes were added to Neuro-2a cells in 1 ml of DMEM+10% FBS and incubated at 37° C. for 4 h. Dishes were rinsed 2× with DMEM, then filled with 3 ml of DMEM+10% FBS and incubated at 37° C. for 48 h. Nicotine, cytisine or DHβE was added at appropriate concentrations during the change of medium following 4 h incubation with Expressfect-plasmid DNA complexes.
Neuro-2a cells were co-transfected with 500 ng each of α4-mcherry and β2-wt nAChR subunits and 250 ng of the ERES marker, Sec24D-eGFP. Each cell was focused to a plane where the maximum ERES were visualized. Sequential images of eGFP and mcherry fluorescence were obtained and linearly unmixed. For quantification, ERES regions of interest (ROIs) were demarcated using intensity-based thresholding and counted for each cell using the particle analysis feature in ImageJ version 1.44 or later. The fluorescence intensity was obtained for each ERES body within the cells and average ERES intensity was plotted. Error bars for ERES measurements are ±standard error of mean (SEM) and p values are based on a 2-tailed t test.

ATF6 = type: cell-based, mouse
Experimental: as §2

α4β2 nAChRs = α4β2 nAChRs (Mus musculus, UniProt O70174+Q9ERK7)
α4β2 nAChRs, sequence (O70174 31-629): as the sequence (O70174 31-629) above
α4β2 nAChRs, sequence (Q9ERK7 26-501): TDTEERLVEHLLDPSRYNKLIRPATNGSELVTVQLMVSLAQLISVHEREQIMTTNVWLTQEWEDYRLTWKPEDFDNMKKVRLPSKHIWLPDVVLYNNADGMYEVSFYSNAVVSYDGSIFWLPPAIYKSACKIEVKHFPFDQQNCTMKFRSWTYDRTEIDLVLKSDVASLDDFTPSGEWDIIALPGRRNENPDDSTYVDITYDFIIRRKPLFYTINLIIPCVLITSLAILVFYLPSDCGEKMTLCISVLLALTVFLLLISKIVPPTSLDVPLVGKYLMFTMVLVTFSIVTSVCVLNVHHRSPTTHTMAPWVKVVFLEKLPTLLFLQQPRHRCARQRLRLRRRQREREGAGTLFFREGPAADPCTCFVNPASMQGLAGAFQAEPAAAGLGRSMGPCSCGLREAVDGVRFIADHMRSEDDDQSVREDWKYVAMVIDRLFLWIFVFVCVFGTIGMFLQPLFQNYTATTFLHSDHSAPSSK
From the text: For NFRET experiments, Neuro-2a cells were transfected with GaIT-eCFP+α4-mcherry+β2-eGFP subunits. GaIT-eCFP was used to label the TG, TGN (Schaub et al., 2006). Cells transfected with α4-mcherryβ2wt or α4wtβ2-eGFP nAChRs were included in every imaging session to control for pixel saturation and spectral bleedthrough. Live cells were imaged using an Eclipse C1si laser scanning confocal microscope. During image acquisition, cells were focused to a plane where the GaIT-eCFP fluorescence was best visualized. Images with emission spectra for eCFP, eGFP and mcherry were acquired in 5-nm bins between 470 and 620 nm. 439, 488 and 561 nm laser lines were used to excite eCFP, eGFP and mcherry respectively. Images were linearly unmixed using reference spectra for eCFP, eGFP and mcherry with emission maxima at 477, 508 and 608 nm. Reference spectra were acquired from Neuro-2a cells transfected with either GaIT-eCFP or α4-mcherryβ2wt or α4wtβ2-eGFP during the same imaging session. Linear unmixing was used to separate all three emission spectra from each image. Linearly unmixed images were compiled into donor spectral bleed-through stacks, acceptor spectral bleed-through stacks, and sample image stacks.
The PixFRET ImageJ plugin was used to determine the eGFP and mcherry spectral bleedthrough (BT) values and to calculate the net FRET (nF) (equation 1) and normalized FRET (NFRET) at each pixel. With the background and bleed-through corrections set, the nF for each pixel as described by equation 1 was calculated and the data were presented as 32-bit images. nF was divided by the square root of eGFP and mcherry intensities (equation 2) to obtain the normalized FRET (NFRET) value at each pixel. FRET normalization was used to control for large differences in fluorophore expression within subcellular regions and between different cells in a dish.
where, nF=net FRET, IFRET=mcherry sensitized emission with 488 nm excitation, IeGFP=eGFP emission with 488 nm excitation, BTeGFP=spectral bleedthrough of eGFP emission into mcherry emission spectra at 488 nm excitation, Imcherry=mcherry emission with 561 nm excitation and BTmcherry=spectral bleedthrough of mcherry emission into eGFP emission spectra at 561 nm excitation. IFRET, IeGFP and Imcherry were obtained from Neuro-2a cells transfected with GaIT-eCFP+α4-mcherry+β2-eGFP. BTeGFP and BTmcherry values were obtained from Neuro-2a cells transfected with α4-mcherry+β2wt and α4wt+β2-eGFP respectively.
Histograms of NFRET (x-axis) versus number of pixels (y-axis) of each imaged cell were compiled for either the whole cell sections or the TG, TGN ROIs, demarcated by intensity-based thresholding of GaIT-eCFP fluorescence. Frequency histograms obtained in this way (omitting values of zero) were merged for all cells in each experimental group and fitted to two Gaussian components such that a minimum goodness of fit (R^2) value of 0.995 was achieved. Ratios of area under the curve for the two Gaussian components with high and low mean NFRET values were used to determine changes in receptor stoichiometry between experimental groups: NFRET histograms were fitted to Gaussian components, yielding the total pixel area under either the A1 (low mean NFRET fit) or A2 (high mean NFRET fit) components. For quantitative measurements of stoichiometry, we compared the fractional area (FA) for the low NFRET component in each case as given by the following equation:
where, FA=fractional area, A1=area under the curve for low mean NFRET Gaussian component and A2=area under the curve for high mean NFRET Gaussian component.
Due to variability resulting from cell passage number, we imaged untreated control cells on the same day to compare and evaluate the effects of drug exposure on stoichiometry.

α4-eGFPβ2-wt nAChRs [1] = molecular target: T3, α4-eGFPβ2-wt nAChRs (Mus musculus, UniProt O70174+Q9ERK7); type: cell-based
T3 construct: expressed in transfected cells; host or cells: mouse Neuro-2a cells
T3 sequence (O70174 31-629): as the sequence (O70174 31-629) above
T3 sequence (Q9ERK7 26-501): as the sequence (Q9ERK7 26-501) above
Experimental: Neuro-2a cells were plated on 12 mm glass coverslips within 35 mm plastic bottom cell culture dishes. The following day, cells were transfected with 500 ng α4-eGFP and 500 ng β2-wt nAChR subunits. 24 to 48 hr later, glass coverslips were transferred to dishes on the microscope stage. Green fluorescence was visualized with an upright microscope (BX50WI, Olympus) and UV illumination with appropriate excitation filters. Agonist-induced currents were tested at a holding potential of −65 mV using a focal, relatively rapid drug application system designed to minimize desensitization (Xiao et al., 2009). We applied drugs from the lowest to highest concentration at 3 min intervals to minimize desensitization. Whole-cell patch-clamp recordings were with a MultiClamp 700B amplifier, a 1322 analog-to-digital converter, and pCLAMP 9.2 software (all from Axon Instruments, Molecular Devices). Data were sampled at 10 kHz and filtered at 2 kHz.
The intrapipette solution contained (in mM): 135 potassium gluconate, 5 KCl, 5 EGTA, 0.5 CaCl2, 10 HEPES, 2 Mg-ATP, and 0.1 GTP; the pH was adjusted to 7.2 with Tris base and the osmolarity to 300 mOsm with sucrose. The extracellular solution contained (in mM): 140 NaCl, 5 KCl, 2 CaCl2, 1 MgCl2, 10 HEPES, and 10 glucose; pH was adjusted to 7.3 with Tris base. The Nernst potential for Cl^− in the intrapipette solution is −82.9 mV. The bath was continuously perfused with extracellular solution (ECS) at room temperature (23±1° C.). The patch electrodes had resistances of 5 to 8 MΩ. The junction potential between the patch pipette and the bath solutions was nulled just before forming a gΩ seal. Series resistance was monitored and compensated by 70-80% throughout recordings. The data were ignored if the series resistance (15-30 MΩ) changed by >20% during the recording session.

Neuro-2a cells [2] = type: cell-based, mouse
Experimental: (§3) Neuro-2a cells were transfected with α4-eGFP (500 ng)+β2wt (500 ng)+GaIT-mcherry (250 ng) or pDSred2-ER (100 ng) and cells were incubated for 48 h with appropriate concentrations of nicotine, cytisine or DHβE.
Two color fluorescence signals were separated with a dichroic and optical filters aligned in the emission path where green and red emission was separately aligned to the two halves of an EMCCD. Post-acquisition processing of images used Metamorph to demarcate TGN bodies and to extract number, size and intensity statistics.

α4-eGFPβ2-wt nAChRs [3] = molecular target: T3, α4-eGFPβ2-wt nAChRs; type: cell-based; remark: listed apart in the source
From the text: Details of the quantification method have been previously described (Srinivasan et al., 2011). Briefly, PM fluorescence was extracted as follows: Raw TIRF images were converted to background-subtracted images and the ER fluorescence was thresholded and selected. ER fluorescence was then subtracted from the original image to generate images with PM fluorescence signals. These procedures yielded a dataset of several hundred thousand pixel intensities over the 15-50 cells in each experimental group. Fluorescence intensities are simply the sum of pixel values for either the PM or the ER or the ER+PM (using whole TIRF footprint images). Mean PM fluorescence intensity was derived by dividing the total fluorescence intensity for each experimental group by the number of imaged cells and normalized to intensity of untreated cells. Ratios of fluorescence intensities for the whole TIRF footprint (ER+PM) to ER were used to determine the post-Golgi fraction of receptors. For PM integrated density measurements, rather than plotting SEMs (which would be indistinguishably small on the plots), we have used “error bars” to depict 99% confidence intervals based on a two-tailed t-test. Measurements from drug treated cells were normalized to values of untreated cells imaged on the same day. DHβE TIRF experiments were performed on a different day from nicotine and cytisine experiments.

Neuro-2a cells [4] = type: cell-based, mouse; remark: listed apart in the source
Experimental: as §3
In ImageJ, background was subtracted, and DSred2-ER fluorescence was thresholded and demarcated for each cell.

NMDA receptor = settings: in vivo; cited from earlier work
[5] = compared with untreated cells, 48 h
[6] = compared to untreated cells, 48 h exposure

In the case of `CC(=O)OCC[N+](C)(C)C` [ACh], the “ACh evoked inward currents” value (α4-GFPβ4-WT nAChRs; 300 μM ACh puffs (0.1 s, 20 psi), α4-GFPβ4-WT) is reported as 310±72 pA, the “neurons in which ACh evoked inward currents” value (α4-GFPβ4-WT nAChRs; 300 μM ACh, α4-GFPβ4-WT (8/8)) is reported as 100% and the “current density (ACh currents divided by membrane capacitance)” value (α4-GFPβ4-WT nAChRs; 300 μM ACh, α4-GFPβ4-WT as printed) is reported as 6.3±1.4 pA/pF. The “ACh evoked inward currents” value (α4-GFPβ4-R348C nAChRs; 300 μM ACh puffs (0.1 s, 20 psi), α4-GFPβ4-R348C) was 120±33 pA, the “neurons in which ACh evoked inward currents” value (α4-GFPβ4-R348C nAChRs; 300 μM ACh, α4-GFPβ4-R348C (11/12)) was 92% and the “current density (ACh currents divided by membrane capacitance)” value (α4-GFPβ4-R348C nAChRs; 300 μM ACh, α4-GFPβ4-R348C as printed) was 16.3±2.1 pA/pF.

In the case of `O=c1cccc2n1C[C@@H]1CNC[C@H]2C1` [Cytisine, cytisine], the “increase in ERES fluorescence / formation of ERES” value (ER exit sites (ERES)) is reported as ~2 fold, the “reduction in the ratio of nuclear to whole cell ATF6-eGFP fluorescence” value (ATF6) is reported as ~25% and the “TG+TGN FA (fractional area of low NFRET component)” value (α4β2 nAChRs) is reported as 0.42. For the same compound, the “whole cell FA (fractional area of low NFRET component)” value (α4β2 nAChRs) was 0.30, the “evoked currents as % of maximum currents induced by 500 μM nicotine” value (α4-eGFPβ2-wt nAChRs [1]) was < 0.1% and the “fraction of the total receptor population activated” value (α4-eGFPβ2-wt nAChRs [1]) was < 0.1%. For the same compound, the “Number of TGN bodies” value (Neuro-2a cells [2]) was “no effect”, the “effect on the average intensity of TGN bodies (in words)” value (Neuro-2a cells [2]) was “significantly reduced” and the “effect on the number of TGN bodies (in words)” value (Neuro-2a cells [2]) was “failed to significantly affect”. The “increase in PM-localized nAChRs” value (α4-eGFPβ2-wt nAChRs [3]) was 3 fold and ~3.5 fold, the “increase in the footprint/ER ratio” value (α4-eGFPβ2-wt nAChRs [3]) was ~1.5 fold and ~2 fold and the “effect on peripheral ER area (in words)” value (Neuro-2a cells [4]) was “reduced”. The “reduction in the average ER area” value (Neuro-2a cells [4]) was ~1.4 fold.

In the case of `CO[C@H]1CC=C2CCN3CCC4=C(CC(=O)OC4)[C@]23C1` [DHβE, dihydro-β-erythroidine], the “increase in ERES fluorescence / formation of ERES” value (ER exit sites (ERES); compared to untreated control cells, co-expressed nAChRs) is reported as ~2 fold, the “reduction in the ratio of nuclear to whole cell ATF6-eGFP fluorescence” value (ATF6; 10 or 100 μM, 48 h (both concentrations)) is reported as ~23% and the “TG+TGN FA (fractional area of low NFRET component)” value (α4β2 nAChRs; 10 μM DHβE, untreated cells 0.53) is reported as 0.37. For the same compound, the “whole cell FA (fractional area of low NFRET component)” value (α4β2 nAChRs; 10 μM DHβE, untreated cells 0.54) was 0.45, the “effect on nAChR stoichiometry” value (α4β2 nAChRs; concentrations ranging from 0.1 to 1 μM) was “did not affect” and the “nAChR activation (in words)” value (α4-eGFPβ2-wt nAChRs [1]) was “activates no receptors”. The “effect on the average intensity of TGN bodies (in words)” value (Neuro-2a cells [2]; [5]) was “significantly reduced”, the “effect on the number of TGN bodies (in words)” value (Neuro-2a cells [2]; [5]) was “failed to significantly affect” and the “effect on the footprint/ER ratio (in words)” value (α4-eGFPβ2-wt nAChRs [3]; [6]) was “no marked effects”. The “increase in the footprint/ER ratio” value (α4-eGFPβ2-wt nAChRs [3]; [6]) was ~1.5 fold, the “effect on PM-localized nAChRs (in words)” value (α4-eGFPβ2-wt nAChRs [3]; compared to untreated controls, 48 h exposure) was “small, but significant increase; also recorded: no marked effects” and the “effect on peripheral ER area (in words)” value (Neuro-2a cells [4]; compared to untreated controls, 48 h) was “did not significantly affect”.

For `CNC1(c2ccccc2Cl)CCCCC1=O` (centres unmarked) [ketamine], the “time within which antidepressant effects become established” value (NMDA receptor) is given as 1 to 2 h.

— patent US20130197023A1, “NEUROPROTECTION BY PHARMACOLOGICAL CHAPERONING OF NICOTINIC ACETYLCHOLINE RECEPTORS” (priority 2012, published 2013)
